Test results reported in US10363231B2, “Compounds and methods of treating ocular disorders” (CASE WESTERN RESERVE UNIVERSITY, priority 2014, dated 2019).

molecular target: T1, LRAT (Bos taurus, UniProt Q9BGL2); assay: LRAT activity assay with bovine RPE microsomes (esterification of the corresponding primary alcohols); assay type: biochemical; details: percentage of the corresponding primary alcohol esterified by LRAT in 1 h at 37° C; 10 μM; RPE microsomes
T1 construct: incubated with RPF microsomes that served as a source of LRAT enzymatic activity; from tissue; host or cells: bovine retinal pigment epithelium (RPE) microsomes
T1 sequence (Q9BGL2 1-230): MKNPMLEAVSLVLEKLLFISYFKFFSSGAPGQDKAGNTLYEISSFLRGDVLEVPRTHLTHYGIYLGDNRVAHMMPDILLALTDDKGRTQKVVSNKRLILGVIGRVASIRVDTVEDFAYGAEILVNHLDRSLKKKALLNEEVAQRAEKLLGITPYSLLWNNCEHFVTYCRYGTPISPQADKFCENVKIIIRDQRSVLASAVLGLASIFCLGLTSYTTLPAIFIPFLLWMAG
Description: (§1) Bovine RPE microsomes were isolated from RPE homogenates by differential centrifugation as previously described. The resulting microsomal precipitate was resuspended in 10 mM Bis-Tris propane/HCl buffer, pH 7.4, to achieve a total protein concentration of […]. Then the mixture was placed in a quartz cuvette and irradiated for 6 min at 4° C. with a ChromatoUVE transilluminator (model TM-15; UVP) to eliminate residual retinoids. After irradiation, DTT was added to the RPE microsomal mixture to achieve a final concentration of 5 mM.
Two μl of a synthesized primary alcohol or amine dissolved in DMF (final concentration 10 μM) and 2 μl of 1,2-diheptanoyl-sn-glicerol-3-phosphocholine (water, final concentration 1 mM) were added to 200 μl of 10 mM Bis-Tris propane/HCl buffer, pH 7.4, containing 150 μg of RPE microsomes and 1% (v/w) BSA. The resulting mixture was incubated at 37° C. for 1 h. The reaction was quenched by adding 300 μl of methanol. Most reaction products were extracted with 300 μl of hexanes, except for products from the QEA-C-006 and QEA-G groups which were extracted by adding 300 μl of ethyl acetate and 300 μl of water.
Reaction products were separated and quantified by normal phase HPLC (Agilent Sil 5 μm, 4.6 mm×250 mm) in stepwise gradient of ethyl acetate in hexanes (0-15 min, 10%; 20-30 min, 30%) at a flow rate of 1.4 ml·min^−1.
The properties of retinoid derivatives were examined by two standard enzymatic tests, the […] and retinoid isomerization assays. To identify substrates of LRAT, aldehydes were reduced by sodium borohydrate to their corresponding primary alcohols that then were directly used in the esterification assay (FIG. 2B).
The alcohols were incubated with RPF microsomes that served as a source of LRAT enzymatic activity. Products of the enzymatic reaction as well as the remaining substrates were extracted with organic solvents and analyzed by HPLC. The ratio between a substrate and its esterified form was used to measure enzymatic activity efficiency, based on equivalent UV absorption of the substrate and product at their specific UV maxim wavelengths. Compounds classified as ‘good’ LRAT substrates converted at least 50% of their available alcohol substrates into corresponding esters under these experimental conditions, whereas marginal LRAT substrates were converted at less than 5%. Alcohols with a 5-50% conversion ratio were classified as weak substrates. Among 35 tested compounds, 23 were categorized as good and 9 as weak substrates; 3 compounds were not esterified by LRAT (Table 1 and FIG. 2C). […] Moreover, breaking double bond conjugation along the polyene chain or deletion of a C9 and/or a C13 methyl group also was allowed.

Compound | LRAT Substrate [%]
CC1=C(/C=C/C=C/C=C/C=C/CN)C(C)(C)CCC1 [QEA-A-005-NH2] | 100
COc1ccc(C(=C\C=C\C(C)=C\CN)/C=C/C2=CCCCC2)cc1 [QEA-E-002-NH2] | 100
CC(/C=C/C=C(/C=C/c1ccc(C(F)(F)F)cc1)c1ccccc1)=C\CN [QEA-C-003-NH2] | 100
CC(/C=C/C=C(/C=C/c1ccccc1)C(C)(C)C)=C\CN [QEA-C-001-NH2] | 50
CC(/C=C/C=C(/c1ccc2ccccc2c1)C(C)(C)C)=C\CN [TEA-C-002-NH2] | 20
CC1=C(/C=C/C(=C/C=C/C(C)=C/CN)C(C)(C)C)C(C)(C)CCC1 [QEA-B-003-NH2] | 100
CC(C)(C)C(=C\C=C\CN)/C=C/C1=CCCCC1 [TEA-B-002-NH2] | 10
CC1=C(/C=C/C(=C/C=C/C(C)=C/CN)C(C)(C)C)CCCC1 [QEA-B-002-NH2] | 30

molecular target: T2, RPE65 (Bos taurus, UniProt Q28175); assay: Retinoid isomerase activity assay (11-cis-retinol production in RPE microsomes); assay type: biochemical, Bovine; details: not given
T2 construct: from tissue; host or cells: bovine retinal pigment epithelium (RPE) microsomes
T2 sequence (Q28175 whole entry): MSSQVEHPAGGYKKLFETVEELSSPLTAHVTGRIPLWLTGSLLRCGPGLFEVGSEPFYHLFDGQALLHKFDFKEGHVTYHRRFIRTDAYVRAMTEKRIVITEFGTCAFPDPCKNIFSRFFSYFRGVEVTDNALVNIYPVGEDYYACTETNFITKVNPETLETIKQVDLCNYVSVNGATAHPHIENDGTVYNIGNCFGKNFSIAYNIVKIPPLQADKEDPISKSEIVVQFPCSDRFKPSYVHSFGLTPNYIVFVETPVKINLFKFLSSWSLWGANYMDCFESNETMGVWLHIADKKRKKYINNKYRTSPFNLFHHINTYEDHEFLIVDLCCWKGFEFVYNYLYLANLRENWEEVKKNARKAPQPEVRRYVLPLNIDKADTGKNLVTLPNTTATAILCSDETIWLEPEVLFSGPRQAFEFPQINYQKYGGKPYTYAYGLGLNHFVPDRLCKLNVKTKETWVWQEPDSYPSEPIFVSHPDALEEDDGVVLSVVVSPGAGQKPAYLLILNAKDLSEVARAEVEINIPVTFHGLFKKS
Description: as §1
[…] The resulting mixture was pre incubated at room temperature for 5 min. Then 1 μl of all-trans-retinol (in DMF, final concentration 20 μM) was added. The resulting mixture was incubated at 37° C. for 15 min to 2 h. The reaction was quenched by adding 300 μl of methanol, and products were extracted with 300 μl of hexanes. Production of 11-cis-retinol was quantified by normal phase HPLC with 10% (v/v) ethyl acetate in hexanes as the eluent at a flow rate of 1.4 ml·min^−1. Retinoids were detected by monitoring their absorbance at 325 nm and quantified based on a standard curve representing the relationship between the amount of 11-cis-retinol and the area under the corresponding chromatographic peak.
Primary amines of compounds derived from the aldehydes were subsequently tested for their ability to inhibit the RPE65-dependent retinoid isomerization reaction in dose- and time dependent reactions as exemplified by QEB-B-001 (FIG. 3B). Amines were incubated with RPE microsomes in the presence of all-trans-retinol and the 11-cis-retinoid binding protein, CRALBP.
Progress of the enzymatic reaction was monitored by HPLC separation of retinoids and quantification of 11-cis-retinol with a decrease of 11-cis-retinol production reflecting inhibition of RPE65 by a tested amine. […] This moderate inhibition could be enhanced by shortening the polyene chain length (TEA amines) or diminished by introducing an extra positive charge into the tested compounds (QEA-G amines).

Compound | inhibition of RPE65
COc1ccc(C(=C\C=C\C(C)=C\CN)/C=C/C2=CCCCC2)cc1 [QEA-E-002-NH2] | did not inhibit
CC(/C=C/C=C(/C=C/c1ccc(C(F)(F)F)cc1)c1ccccc1)=C\CN [QEA-C-003-NH2] | did not inhibit
CC(/C=C/C=C(/C=C/c1ccccc1)C(C)(C)C)=C\CN [QEA-C-001-NH2] | did not inhibit
CC(/C=C/C=C(/c1ccc2ccccc2c1)C(C)(C)C)=C\CN [TEA-C-002-NH2] | did not inhibit
CC(C)(C)C(=C\C=C\CN)/C=C/C1=CCCCC1 [TEA-B-002-NH2] | did not inhibit
CC1=C(/C=C/C(=C/C=C/C(C)=C/CN)C(C)(C)C)CCCC1 [QEA-B-002-NH2] | did not inhibit

same assay, conditions: primary amine; decline in 11-cis-retinol production in RPE microsomes; read-out: Inhibition of RPE65

Compound | IC50 [µM]
CC1=C(/C=C/C=C/C=C/C=C/CN)C(C)(C)CCC1 [QEA-A-005-NH2] | < 10
COc1ccc(C(=C\C=C\C(C)=C\CN)/C=C/C2=CCCCC2)cc1 [QEA-E-002-NH2] | > 200
CC(/C=C/C=C(/C=C/c1ccc(C(F)(F)F)cc1)c1ccccc1)=C\CN [QEA-C-003-NH2] | > 200
CC(/C=C/C=C(/C=C/c1ccccc1)C(C)(C)C)=C\CN [QEA-C-001-NH2] | > 200
CC(/C=C/C=C(/c1ccc2ccccc2c1)C(C)(C)C)=C\CN [TEA-C-002-NH2] | > 200
CC1=C(/C=C/C(=C/C=C/C(C)=C/CN)C(C)(C)C)C(C)(C)CCC1 [QEA-B-003-NH2] | 10 to 100
CC(C)(C)C(=C\C=C\CN)/C=C/C1=CCCCC1 [TEA-B-002-NH2] | > 200
CC1=C(/C=C/C(=C/C=C/C(C)=C/CN)C(C)(C)C)CCCC1 [QEA-B-002-NH2] | > 200

same assay, conditions: read-out: inhibition of RPE65

Compound | IC50 [µM]
CC1=C(/C=C/C=C/C=C/C=C/CN)C(C)(C)CCC1 [QEA-A-005-NH2] | < 10

system: not listed separately; assay: Analysis of retinoid composition in mouse tissues: amide forms in liver by HPLC; assay type: in vivo, mice; details: 4-week-old Abca4−/−Rdh8−/− mice, oral gavage, dark 24 h; liver extracts by HPLC
Description: (§2) Abca4^−/−Rdh8^−/− double knockout mice were generated as previously described. Mice were housed in the animal facility at the School of Medicine, Case Western Reserve University, where they were maintained under either complete darkness or in a 12-h light (˜300 lux) and 12-h dark cycle. All tested primary amines were suspended in 100 μl of soybean oil with less than 10% (v/v) DMSO and were administered by oral gavage with a 22-gauge feeding needle. Experimental manipulations in the dark were done under dim red light transmitted through a Kodak No. 1 safelight filter (transmittance >560 nm). All animal procedures and experiments were approved by the Case Western Reserve University Animal Care Committees and conformed to recommendations of the American Veterinary Medical Association Panel on Euthanasia and the Association of Research for Vision and Ophthalmology.
Two mg of primary amines were administered by oral gavage to 4-week-old Abca4^−/−Rdh8^−/− mice, which then were kept in the dark for 24 h. Then mice were euthanized, and their livers were homogenized in 1 ml of 10 mM sodium phosphate buffer, pH 7.4, containing 50% methanol (v/v). The resulting mixture was extracted with 4 ml of hexanes. Extracts were dried in vacuo, and reconstituted in 300 μl of hexanes. 100 μl of this solution was analyzed by HPLC as described above for the LRAT activity assay.
(§3) For practical reasons, only eight of these leading compounds (QEA-B-001-NH2, B-002-NH2, C-001-NH2, C-003-NH2, C006-NH2, E-002-NH2, TEA-B-002-NH2, and C00-2-NH2) along with retinylamine as a control were selected for further testing in Abca4^−/−Rdh8^−/− mice, an animal model for light-induced retinal degeneration (Table 2). Additionally, two novel amines with moderate inhibition of RPE65 (QEA-A-006-NH2 and QEA-B-003-NI 12) and one with strong inhibition (QEA-A-005-NH2) were added to the first test group for comparison. Mice were gavaged with 1 mg of a test compound and then kept in the dark for 24 h prior to being exposed to bright light (˜10,000 lux) for 1 h. Retinal damage was assessed with OCT that measured the thickness of the outer nuclear layer and by quantification of tissue 11-cis retinal levels. An example is shown for imaging results in FIG. 4A and for 11-cis-retinal quantification in FIG. 4B. Additionally, extracts of livers obtained from treated mice were analyzed by HPLC to estimate the amounts of corresponding amides (FIG. 4C).

Compound | Protection by amide in liver
CC1=C(/C=C/C=C/C=C/C=C/CN)C(C)(C)CCC1 [QEA-A-005-NH2] | Strong
COc1ccc(C(=C\C=C\C(C)=C\CN)/C=C/C2=CCCCC2)cc1 [QEA-E-002-NH2] | Weak
CC(/C=C/C=C(/C=C/c1ccc(C(F)(F)F)cc1)c1ccccc1)=C\CN [QEA-C-003-NH2] | None
CC(/C=C/C=C(/C=C/c1ccccc1)C(C)(C)C)=C\CN [QEA-C-001-NH2] | Strong
CC(/C=C/C=C(/c1ccc2ccccc2c1)C(C)(C)C)=C\CN [TEA-C-002-NH2] | Strong
CC1=C(/C=C/C(=C/C=C/C(C)=C/CN)C(C)(C)C)C(C)(C)CCC1 [QEA-B-003-NH2] | Weak
CC(C)(C)C(=C\C=C\CN)/C=C/C1=CCCCC1 [TEA-B-002-NH2] | None
CC1=C(/C=C/C(=C/C=C/C(C)=C/CN)C(C)(C)C)CCCC1 [QEA-B-002-NH2] | None

same assay, conditions: oral gavage, liver HPLC

Compound | amidation in vivo (accumulation of amide forms in mouse liver)
COc1ccc(C(=C\C=C\C(C)=C\CN)/C=C/C2=CCCCC2)cc1 [QEA-E-002-NH2] | not efficiently amidated
CC(/C=C/C=C(/C=C/c1ccc(C(F)(F)F)cc1)c1ccccc1)=C\CN [QEA-C-003-NH2] | not efficiently amidated
CC(/C=C/C=C(/C=C/c1ccccc1)C(C)(C)C)=C\CN [QEA-C-001-NH2] | efficiently converted into amides
CC(/C=C/C=C(/c1ccc2ccccc2c1)C(C)(C)C)=C\CN [TEA-C-002-NH2] | efficiently converted into amides
CC1=C(/C=C/C(=C/C=C/C(C)=C/CN)C(C)(C)C)C(C)(C)CCC1 [QEA-B-003-NH2] | not efficiently amidated
CC(C)(C)C(=C\C=C\CN)/C=C/C1=CCCCC1 [TEA-B-002-NH2] | not efficiently amidated
CC1=C(/C=C/C(=C/C=C/C(C)=C/CN)C(C)(C)C)CCCC1 [QEA-B-002-NH2] | not efficiently amidated

system: Abca4^−/−Rdh8^−/− mice; assay: Toxicity in treated Abca4−/−Rdh8−/− mice (Table 2); assay type: in vivo; details: 4-week-old Abca4−/−Rdh8−/− mice, oral gavage
Description: as §2, §3

Compound | Toxicity
CC1=C(/C=C/C=C/C=C/C=C/CN)C(C)(C)CCC1 [QEA-A-005-NH2] | None
COc1ccc(C(=C\C=C\C(C)=C\CN)/C=C/C2=CCCCC2)cc1 [QEA-E-002-NH2] | None
CC(/C=C/C=C(/C=C/c1ccc(C(F)(F)F)cc1)c1ccccc1)=C\CN [QEA-C-003-NH2] | Yes
CC(/C=C/C=C(/C=C/c1ccccc1)C(C)(C)C)=C\CN [QEA-C-001-NH2] | Yes
CC(/C=C/C=C(/c1ccc2ccccc2c1)C(C)(C)C)=C\CN [TEA-C-002-NH2] | Yes
CC1=C(/C=C/C(=C/C=C/C(C)=C/CN)C(C)(C)C)C(C)(C)CCC1 [QEA-B-003-NH2] | None
CC(C)(C)C(=C\C=C\CN)/C=C/C1=CCCCC1 [TEA-B-002-NH2] | Yes
CC1=C(/C=C/C(=C/C=C/C(C)=C/CN)C(C)(C)C)CCCC1 [QEA-B-002-NH2] | None

system: Abca4^−/−Rdh8^−/− mice; assay: Light-induced acute retinal degeneration in Abca4−/−Rdh8−/− mice (OCT, 11-cis-retinal, ERG); assay type: in vivo; details: 2 mg; dark 24 h, then 10,000 lux 1 h

Compound | protection of ONL (averaged ONL thickness by OCT)
CC1=C(/C=C/C=C/C=C/C=C/CN)C(C)(C)CCC1 [QEA-A-005-NH2] | protected
